Experimental data as given in US5077059A, “Process for preparing melanogenic inhibitor, and pigmentation-lightening agent containing the same” (Yuaka; Mishimazo, priority 1987, dated 1991).

Columns and labels:
Assay type in all cases: cell-based
[1] = test system: B-16 cell derived from mouse melanoma; test: Melanogenic inhibitory activity in a prescribed pigment cell (B-16); conditions: Experiment 2, B-16 cell; intact melanogenic inhibitor at 1 or 3 units
Protocol: The melanogenic inhibitory activity in a prescribed pigment cell is detected by the method described in Cancer Research, Vol. 42, pp. 1994-2002 (1982).
B-16 cell derived from mouse melanoma is suspended in 10 ml Eagle's minimal essential medium (Grand Island Biological Co., Grand Island, N.Y.), supplemented with 10% fetal calf serum, to give 4×10^4 cells. The suspension is placed into a 25 cm^2 Roux's flask, and cultured at 37° C. with 5% CO2. The cultivation is continued for 5 days while replacing the culture medium with a fresh one supplemented with a melanogenic inhibitor specimen at the first- and third-days. After completion of the culture, the resultant cells are washed with a phosphate buffer (pH 7.2) containing 0.8 w/v % saline to detach them from the inside wall of the Roux's flask by the addition of a solution containing trypsin and EDTA (ethylenediaminetetraacetic acid), collected on a filter paper, and dried. The resultant cells are subjected to densitometry to measure the reflection light at a wave length of 500 nm, followed by determination of the reflection absorbance (degree of darkness).
One unit of melanogenic inhibitory activity is defined as the amount of the melanogenic inhibitor which halves the reflection absorbance of B-16 cells without treatment of melanogenic inhibitor.
(§1) According to the method for detecting melanogenic inhibitory activity in a prescribed pigment cell, specimens containing 1 or 3 units of an intact melanogenic inhibitor, obtained by the method in Experiment 1, were used to compare melanogenic inhibitory activity in established melanoma cell lines, i.e., B-16 cell (mouse melanoma origin), RPMI 1846 cell (hamster melanoma origin), and Malme-3M cell (human melanoma origin).

[2] = test system: Malme-3M cell (human melanoma origin); test: Comparison of melanogenic inhibitory activity, Malme-3M cell; conditions: Experiment 2, Malme-3M cell; intact melanogenic inhibitor at 1 or 3 units
Source text: as §1
(§2) As control, either a system without melanogenic inhibitor or another system with melanogenic inhibitor which had been treated at […] for 2 hours was tested similarly as above.

[3] = test system: RPMI 1846 cell (hamster melanoma origin); test: Comparison of melanogenic inhibitory activity, RPMI 1846 cell; conditions: Experiment 2, RPMI 1846 cell; intact melanogenic inhibitor at 1 or 3 units
Source text: as §1, §2

Measured: melanogenic inhibitory activity, comparison

N[C@@H](CS)C(=O)O [cysteine]
no melanogenic inhibition: all assays above

N[C@@H](CCC(=O)N[C@@H](CS)C(=O)NCC(=O)O)C(=O)O [glutathione]
no melanogenic inhibition: all assays above

O=C1O[C@H]([C@@H](O)CO)C(O)=C1O [vitamin C]
no melanogenic inhibition: all assays above
